Here are results for 45 molecules from the Biogen ADME set (Fang et al. 2023).

≈ marks a conversion by molar mass, not a printed value.

The conditions of the data set: for aqueous solubility: pH 6.8.

As usually defined, the aqueous solubility is the concentration that dissolves in the medium under given conditions. Read a high aqueous solubility as a readily soluble substance. For `Cc1nn(-c2ccc(C(=O)O)cc2C#Cc2ccccc2)c(C)c1C`, the MDR1-MDCK efflux ratio was 3.82; the intrinsic clearance, human liver microsomes is ≤ 4.74 mL/min/kg; the intrinsic clearance, rat liver microsomes turned out to be 595 mL/min/kg; the aqueous solubility amounted to 46.4 µg/mL (≈ 140 µM).
For `CC(C)N(CCCNC(=O)Nc1ccc(C(C)(C)C)cc1)C[C@@H]1O[C@@H](n2ccc3c(N)ncnc32)[C@H](O)[C@H]1O`, the MDR1-MDCK efflux ratio is 6.05; the intrinsic clearance, human liver microsomes worked out at 187 mL/min/kg; the intrinsic clearance, rat liver microsomes worked out at 1930 mL/min/kg.
The like results for `CCOc1ccc(OCCN2CCN(C(C)=O)CC2)cc1` were, in that order, 0.671, ≤ 4.74 mL/min/kg and 17.5 mL/min/kg.
With `O=C(NCCN1CCC(c2ccccc2)CC1)c1ccc2ncsc2c1`, the MDR1-MDCK efflux ratio was found to be 1.31; the intrinsic clearance, human liver microsomes was 15.2 mL/min/kg; the intrinsic clearance, rat liver microsomes stood at 108 mL/min/kg; the aqueous solubility is 44 µg/mL (≈ 120 µM).
On to `c1ccc(CNc2nn3nnnc3c3ccccc23)cc1`, for which the MDR1-MDCK efflux ratio was 0.624 and the aqueous solubility turned out to be 0.1 µg/mL (≈ 0.362 µM).
Turning to `CN1CCC(O)(CNC(=O)C2CCCCCC2)CC1`, the MDR1-MDCK efflux ratio was found to be 11.2; the intrinsic clearance, human liver microsomes was ≤ 4.74 mL/min/kg; the intrinsic clearance, rat liver microsomes was determined as 458 mL/min/kg.
In the case of `O=C1N=C2C=CC=CN2C12Cc1ccccc1C2`, the MDR1-MDCK efflux ratio is 4.09; the intrinsic clearance, human liver microsomes was ≤ 4.74 mL/min/kg; the intrinsic clearance, rat liver microsomes is ≤ 10.7 mL/min/kg; the aqueous solubility was 37.4 µg/mL (≈ 158 µM).
With `Cc1cc2ccccc2n1CC(=O)N(C)Cc1cnn(C)c1`, the MDR1-MDCK efflux ratio was found to be 2.14 and the aqueous solubility amounted to 47.5 µg/mL (≈ 160 µM).
Regarding `FC(F)(F)COc1ccc(CN2CCc3c(cnn3-c3ccccc3)C2)nn1`, the MDR1-MDCK efflux ratio is 0.59; the intrinsic clearance, human liver microsomes is 22.6 mL/min/kg; the intrinsic clearance, rat liver microsomes was 79.3 mL/min/kg; the aqueous solubility was 52.1 µg/mL (≈ 134 µM).
The like results for `CN1C(=O)N(CC(=O)Nc2ccccc2-c2ccccc2)C(=O)C1(C)C` were, in that order, 12.9, 21.4 mL/min/kg, 280 mL/min/kg and 18.7 µg/mL (≈ 53.2 µM).
As for `N#CC1(NC(=O)c2ccc3c(c2)OCO3)CCCC1`, the intrinsic clearance, human liver microsomes is ≤ 4.74 mL/min/kg and the intrinsic clearance, rat liver microsomes came out at 64.9 mL/min/kg.
For `Cc1ccc(C)c2c(O)cc(CN3CC(c4ccccn4)C3)nc12`, the MDR1-MDCK efflux ratio was 4.2; the intrinsic clearance, human liver microsomes turned out to be 36.5 mL/min/kg; the intrinsic clearance, rat liver microsomes is 1050 mL/min/kg; the aqueous solubility was 58.3 µg/mL (≈ 183 µM).
As for `CC(=O)Nc1ccc(C(=O)Nc2cc(-c3cccs3)ccc2N)cc1`, the intrinsic clearance, human liver microsomes stood at 9.52 mL/min/kg and the intrinsic clearance, rat liver microsomes amounted to 65.2 mL/min/kg.
Consider `O=C(CCc1cnn(-c2ccccc2)c1)N1CCC(n2c(=O)[nH]c3ccccc32)CC1`, for which the intrinsic clearance, human liver microsomes is 567 mL/min/kg and the intrinsic clearance, rat liver microsomes amounted to 3770 mL/min/kg.
For the molecule `CCCn1c(=O)[nH]c2nc(-c3ccc(S(=O)(=O)O)cc3)[nH]c2c1=O`, the intrinsic clearance, human liver microsomes was ≤ 4.74 mL/min/kg; the intrinsic clearance, rat liver microsomes was ≤ 10.7 mL/min/kg; the aqueous solubility was determined as 52.1 µg/mL (≈ 149 µM).
As to `Cc1cn2nc(-c3cc(=O)n4cc(N5CCNC6(CC6)C5)ccc4n3)cc(C)c2n1`, the MDR1-MDCK efflux ratio was found to be 12.7; the fraction unbound, human plasma was found to be 0.0967; the intrinsic clearance, human liver microsomes came out at 17.5 mL/min/kg; the aqueous solubility turned out to be 36 µg/mL (≈ 89.7 µM).
`COc1cc(Nc2c(C#N)cnc3cc(OC)c(OC)cc23)c(Cl)cc1Cl` returned an intrinsic clearance, human liver microsomes of 161 mL/min/kg and an intrinsic clearance, rat liver microsomes of 443 mL/min/kg.
With `COc1cccc(N2CCN(c3nc(C)cc(C)c3C#N)CC2)c1`, the MDR1-MDCK efflux ratio was found to be 0.519 and the aqueous solubility was 0.9 µg/mL (≈ 2.79 µM).
`CC(=O)N1CCN(c2nc(C(F)(F)F)nc3sc(C)c(C)c23)CC1`: the MDR1-MDCK efflux ratio was found to be 1.22; the fraction unbound, human plasma was 0.0136; the fraction unbound, rat plasma was found to be 0.0421; the intrinsic clearance, human liver microsomes is 43 mL/min/kg. Further, the intrinsic clearance, rat liver microsomes came out at 217 mL/min/kg and the aqueous solubility was 51.3 µg/mL (≈ 143 µM).
`CCc1nc(C)c(Cn2ccnc2-c2cnc(N3CCCC3)nc2)s1`: the MDR1-MDCK efflux ratio turned out to be 4.25; the intrinsic clearance, human liver microsomes was found to be 31.9 mL/min/kg; the intrinsic clearance, rat liver microsomes amounted to 548 mL/min/kg; the aqueous solubility was determined as 35 µg/mL (≈ 98.9 µM).
As to `OC1CCN(c2nccc(-c3cccs3)n2)CC1`, the MDR1-MDCK efflux ratio came to 0.493; the intrinsic clearance, human liver microsomes turned out to be 52.6 mL/min/kg; the intrinsic clearance, rat liver microsomes was found to be 656 mL/min/kg.
In the same order, the values of `c1ccn2cc(CSc3ccc(-n4cccn4)nn3)nc2c1` are 0.732, 18.6 mL/min/kg and 630 mL/min/kg.
On to `CC1(C)OCCn2c1nc1c(N3CCOCC3)nc(-c3cnc(N)nc3)nc12`, for which the MDR1-MDCK efflux ratio was 1.31; the intrinsic clearance, human liver microsomes was found to be 6.14 mL/min/kg; the intrinsic clearance, rat liver microsomes was 26 mL/min/kg; the aqueous solubility worked out at 6.44 µg/mL (≈ 16.8 µM).
In the same order, the values of `c1ccc(Cc2nnc(NC3CCOCC3)s2)cc1` are 1.23, ≤ 4.74 mL/min/kg, 20.6 mL/min/kg and 34 µg/mL (≈ 123 µM).
With `CC1CCC(CNC2(CCO)CCOCC2)CC1` (centres undefined), the MDR1-MDCK efflux ratio stood at 1.29; the intrinsic clearance, human liver microsomes is ≤ 4.74 mL/min/kg; the intrinsic clearance, rat liver microsomes turned out to be 1200 mL/min/kg.
`O=C(N[C@@H](COc1ccc2[nH]c(=O)[nH]c2c1)c1ccccc1)c1cccn(Cc2ccc(F)c(F)c2)c1=O`: the intrinsic clearance, human liver microsomes is 53.2 mL/min/kg and the intrinsic clearance, rat liver microsomes is 383 mL/min/kg.
`CC(C)Cn1cnc2c1c(=O)[nH]c(=O)n2CC(C)C`: the MDR1-MDCK efflux ratio was 1.96; the intrinsic clearance, human liver microsomes is ≤ 4.74 mL/min/kg; the intrinsic clearance, rat liver microsomes was found to be 73.9 mL/min/kg; the aqueous solubility is 55.3 µg/mL (≈ 209 µM).
In the same order, the values of `CC(=O)N1CCC(CCNc2ccc3ccc(F)cc3n2)CC1` are 0.795, 21.5 mL/min/kg, 264 mL/min/kg and 46.2 µg/mL (≈ 146 µM).
On to `CN(Cc1ccc(N)nc1)c1nc2cc(F)ccc2o1`, for which the MDR1-MDCK efflux ratio came to 33.5; the intrinsic clearance, human liver microsomes is ≤ 4.74 mL/min/kg; the intrinsic clearance, rat liver microsomes came to 58.1 mL/min/kg.
On to `Cn1nc(C2CC2)c2[nH]c(-c3cccc(CN4CCOCC4)c3)nc21`, for which the MDR1-MDCK efflux ratio is 52; the intrinsic clearance, human liver microsomes amounted to 18.8 mL/min/kg; the intrinsic clearance, rat liver microsomes worked out at 244 mL/min/kg; the aqueous solubility came out at 49.4 µg/mL (≈ 147 µM).
`OCC1CN(c2nc3cc(F)ccc3o2)C1`: the MDR1-MDCK efflux ratio is 0.704; the intrinsic clearance, human liver microsomes was ≤ 4.74 mL/min/kg; the intrinsic clearance, rat liver microsomes stood at 17.2 mL/min/kg.
In the same order, the values of `CN1CCc2nc(C(=O)N[C@H]3C[C@@H](C(=O)N(C)C)CC[C@@H]3NC(=O)C(=O)Nc3ccc(Cl)cn3)sc2C1` are 178, ≤ 4.74 mL/min/kg and ≤ 10.7 mL/min/kg.
`CC1(C)CC(=O)c2c(C(F)(F)F)nn(-c3ccc(C(N)=O)c(N[C@H]4CC[C@H](OC(=O)CN)CC4)c3)c2C1`: the intrinsic clearance, human liver microsomes stood at 204 mL/min/kg and the intrinsic clearance, rat liver microsomes was determined as 469 mL/min/kg.
`Cc1cnccc1NC(=O)COc1ccccc1C#N`: the intrinsic clearance, human liver microsomes was determined as 12.2 mL/min/kg and the intrinsic clearance, rat liver microsomes stood at 302 mL/min/kg.
In the same order, the values of `O=c1n(Cc2ccncc2)nc2n1-c1cc(Cl)ccc1C1=NCCN12` are 20 mL/min/kg and 143 mL/min/kg.
With `COc1cccc(C(=O)Nc2nccs2)c1`, the MDR1-MDCK efflux ratio stood at 0.562; the intrinsic clearance, human liver microsomes was 109 mL/min/kg; the intrinsic clearance, rat liver microsomes was 605 mL/min/kg.
On to `CC(=O)N1CCCC(C(=O)N2CCc3c(cccc3C(C)C)C2)C1` (centres undefined), for which the intrinsic clearance, human liver microsomes is 46 mL/min/kg; the intrinsic clearance, rat liver microsomes stood at 506 mL/min/kg; the aqueous solubility was 55 µg/mL (≈ 167 µM).
With `CC(C)c1nnc(CN(C(C)C)C2CCOCC2)o1`, the MDR1-MDCK efflux ratio amounted to 0.93; the intrinsic clearance, human liver microsomes came out at 6.75 mL/min/kg; the intrinsic clearance, rat liver microsomes turned out to be 220 mL/min/kg.
As for `Cc1nccn1-c1cncc(N2CCN(CC3CCCC3)C(=O)C2)n1`, the MDR1-MDCK efflux ratio worked out at 6.94; the intrinsic clearance, human liver microsomes is 19.7 mL/min/kg; the intrinsic clearance, rat liver microsomes was 540 mL/min/kg; the aqueous solubility stood at 49.7 µg/mL (≈ 146 µM).
Consider `C[C@H]1Oc2cc(cnc2N)-c2c(nn(C)c2C#N)CN(C)C(=O)c2ccc(F)cc21`, for which the MDR1-MDCK efflux ratio came to 14.5; the intrinsic clearance, human liver microsomes is ≤ 4.74 mL/min/kg; the intrinsic clearance, rat liver microsomes was determined as 34.3 mL/min/kg.
With `CC(=O)N1CCC[C@H]1C(=O)Nc1cccc(OC(F)F)c1`, the MDR1-MDCK efflux ratio amounted to 1.42; the intrinsic clearance, human liver microsomes is ≤ 4.74 mL/min/kg; the intrinsic clearance, rat liver microsomes is 31.4 mL/min/kg; the aqueous solubility worked out at 47 µg/mL (≈ 157 µM).
In the same order, the values of `Cc1cnc(C(=O)N[C@H]2CCOC[C@@H]2O)cc1Cc1ccc(-c2cscn2)cc1` are 6.89, ≤ 4.74 mL/min/kg, 34.8 mL/min/kg and 61.9 µg/mL (≈ 151 µM).
The like results for `CN(Cc1n[nH]c2c1CCCC2)c1nccnc1C#N` were, in that order, 1.01, 39.6 mL/min/kg, 1140 mL/min/kg and 20.5 µg/mL (≈ 76.4 µM).
The like results for `O=C(NCC1=CCCN(Cc2cc(F)ccc2Cl)C1)c1ccco1` were, in that order, 0.69, 200 mL/min/kg, 1640 mL/min/kg and 37.8 µg/mL (≈ 108 µM).
In the case of `C=CCNC1=C2C[C@@H](C)C[C@@H](OC)[C@@H](O)[C@@H](C)/C=C(\C)[C@@H](OC(N)=O)[C@@H](OC)/C=C\C=C(/C)C(=O)NC(=CC1=O)C2=O`, the intrinsic clearance, human liver microsomes turned out to be 489 mL/min/kg and the intrinsic clearance, rat liver microsomes was found to be 1010 mL/min/kg.
